According to patent US20240408093A1, “HETEROBIFUNCTIONAL COMPOUNDS AND THEIR USE IN TREATING DISEASE” (HALDA THERAPEUTICS OPCO, INC., priority 2022, published 2024):
Like-named read-outs stand apart in the source and are kept apart here.

Tests used:
[1] = target: T1, EGFR T790M, L858R (amino acids 669-1011) (Homo sapiens, UniProt P00533, L858R/T790M); experiment: KdELECT binding assay, EGFR T790M, L858R
T1 construct: purchased Eurofins Discovery (KdELECT); host or cells: mammalian cells (HEK-293)
T1 sequence (P00533 669-1011 T790M/L858R): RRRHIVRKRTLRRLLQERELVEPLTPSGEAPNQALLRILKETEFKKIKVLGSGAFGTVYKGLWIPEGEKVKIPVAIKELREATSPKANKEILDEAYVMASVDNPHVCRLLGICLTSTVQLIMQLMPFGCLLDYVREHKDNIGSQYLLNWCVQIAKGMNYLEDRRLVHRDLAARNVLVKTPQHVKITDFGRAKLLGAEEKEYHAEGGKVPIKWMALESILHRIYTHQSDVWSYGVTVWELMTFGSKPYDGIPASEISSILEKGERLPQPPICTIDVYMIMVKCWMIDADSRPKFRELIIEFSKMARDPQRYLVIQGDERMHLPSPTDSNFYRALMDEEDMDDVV
Protocol: Exemplary compounds were tested for ability to bind to EGFR WT (amino acids 669-1011, Accession Number NP_005219.2) or EGFR T790M, L858R (amino acids 669-1011 Accession Number NP_005219.2) expressed from bacteria or mammalian cells, respectively. Compounds were tested using the KdELECT assay at Eurofins Discovery.
Kinase-tagged T7 phage strains were prepared in an E. coli host derived from the BL21 strain. E. coli were grown to log-phase and infected with T7 phage and incubated with shaking at 32° C. until lysis. The lysates were centrifuged and filtered to remove cell debris. The remaining kinases were produced in HEK-293 cells and subsequently tagged with DNA for qPCR detection. Streptavidin-coated magnetic beads were treated with biotinylated small molecule ligands for 30 minutes at room temperature to generate affinity resins for kinase assays. The liganded beads were blocked with excess biotin and washed with blocking buffer (SeaBlock (Pierce), 1% BSA, 0.05% Tween 20, 1 mM DTT) to remove unbound ligand and to reduce non-specific binding. Binding reactions were assembled by combining kinases, liganded affinity beads, and test compounds in 1x binding buffer (20% SeaBlock, 0.17× PBS, 0.05% Tween 20, 6 mM DTT). Test compounds were prepared as 111× stocks in 100% DMSO. Kd values were determined using an 11-point 3-fold compound dilution series with three DMSO control points. All compounds for Kd measurements are distributed by acoustic transfer (non-contact dispensing) in 100% DMSO. The compounds were then diluted directly into the assays such that the final concentration of DMSO was 0.9%. All reactions performed in polypropylene 384-well plate. Each was a final volume of 0.02 mL. The assay plates were incubated at room temperature with shaking for 1 hour and the affinity beads were washed with wash buffer (1× PBS, 0.05% Tween 20). The beads were then re-suspended in elution buffer (1× PBS, 0.05% Tween 20, 0.5 μM nonbiotinylated affinity ligand) and incubated at room temperature with shaking for 30 minutes. The kinase concentration in the eluates was measured by qPCR.

[2] = test system: GSPT1; experiment: Payload release assay (DC50 readout), GSPT1 degradation in the presence of recombinant target protein; format: cell-based; conditions: I-series compounds (GSPT1 readout inferred)
Protocol: Exemplary compounds were tested for ability to cause degradation of CCNK or GSPT1 in the presence of recombinant target protein.
HEK293 LgBiT/GSPT1 HiBiT CRISPR Knock-in cells (Promega) were cultured in DMEM (Gibco 11995), supplemented with 10% Heat-inactivated FBS (Gibco A38400-01) and 1% Penicillin/Streptomycin (Gibco 15140-122) and 200 Vg/ml Hygromycin B (Gibco 10-687-010) at 37° C. with 5% CO2 in a humidified tissue culture incubator. HEK293 LgBiT/CCNK HiBiT cells (in-house, described above) were cultured in DMEM (Gibco 11995), supplemented with 10% Heat-inactivated FBS (Gibco A38400-01) and 1% Penicillin/Streptomycin (Gibco 15140-122) 200 Vg/ml Hygromycin B (Gibco 10-687-010), and 1 Vg/ml Puromycin Dihydrochloride (Thermo A1113803) at 37° C. with 5% CO2 in a humidified tissue culture incubator. Cells were seeded (1000 cells/well for HEK293 LgBiT/GSPT1 HiBiT cells or 3000 cells/well for HEK293 LgBiT/CCNK HiBiT cells) 384-well, tissue culture-treated white plates (Perkin Elmer 6007680) in 10 μL media lacking selection for 18-24 hours. Plates were spun at 300 g for 30 seconds and stored in the incubator overnight. After 24 hours, a 5 μL aliquot of recombinant target protein (final concentration of either 5 μM KRAS amino acids 1-169, C51S, C80L, C118S, G12C or 3 μM EGFR amino acids 696-1022 or 3 μM EGFR amino acids 696-1022, T790M, L858R) was added to wells, followed immediately by a 5 μL aliquot of 4× compound-containing medium supplemented with Endurazine Substrate (Promega N2570) was added in each well, at a final top concentration of 10 μM test compound and 0.5× Endurazine, with 4-fold dilutions, using DMSO alone as a negative control. Plates were then spun at 300×g for 3 minutes again and cultured at 37° C. with 5% CO2. After 6 hours the plate was read on Envision MultiMode Plate Reader 2105 (Perkin Elmer) to measure luminescence signal. Data was normalized to DMSO treated cell wells. A four-parameter non-linear regression curve fit was applied to dose-response data in Prism to determine the half maximal growth inhibitory concentration (GI50) of each compound.

[3] = target: T2, GSPT1 (Homo sapiens, UniProt P15170+Q96SW2); experiment: GSPT1 HiBiT degradation assay; format: cell-based; conditions: HEK293 LgBiT GSPT1 HiBiT cells, 6 hours
T2 construct: host or cells: HEK293 LgBiT / GSPT1 HiBiT CRISPR knock-in
T2 sequence (P15170 whole entry): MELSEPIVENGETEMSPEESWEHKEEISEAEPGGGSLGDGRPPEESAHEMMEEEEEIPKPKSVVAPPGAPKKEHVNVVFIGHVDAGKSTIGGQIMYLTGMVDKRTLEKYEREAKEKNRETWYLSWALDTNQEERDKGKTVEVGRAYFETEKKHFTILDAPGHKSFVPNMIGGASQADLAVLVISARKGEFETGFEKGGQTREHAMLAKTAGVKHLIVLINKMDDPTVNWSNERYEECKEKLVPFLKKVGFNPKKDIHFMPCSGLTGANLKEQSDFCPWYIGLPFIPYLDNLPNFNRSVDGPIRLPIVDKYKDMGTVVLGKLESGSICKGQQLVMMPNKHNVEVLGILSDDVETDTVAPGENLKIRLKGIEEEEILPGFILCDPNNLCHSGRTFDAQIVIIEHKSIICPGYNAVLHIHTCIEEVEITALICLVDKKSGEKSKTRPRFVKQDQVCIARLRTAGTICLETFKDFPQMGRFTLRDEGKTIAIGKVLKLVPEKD
T2 sequence (Q96SW2 whole entry): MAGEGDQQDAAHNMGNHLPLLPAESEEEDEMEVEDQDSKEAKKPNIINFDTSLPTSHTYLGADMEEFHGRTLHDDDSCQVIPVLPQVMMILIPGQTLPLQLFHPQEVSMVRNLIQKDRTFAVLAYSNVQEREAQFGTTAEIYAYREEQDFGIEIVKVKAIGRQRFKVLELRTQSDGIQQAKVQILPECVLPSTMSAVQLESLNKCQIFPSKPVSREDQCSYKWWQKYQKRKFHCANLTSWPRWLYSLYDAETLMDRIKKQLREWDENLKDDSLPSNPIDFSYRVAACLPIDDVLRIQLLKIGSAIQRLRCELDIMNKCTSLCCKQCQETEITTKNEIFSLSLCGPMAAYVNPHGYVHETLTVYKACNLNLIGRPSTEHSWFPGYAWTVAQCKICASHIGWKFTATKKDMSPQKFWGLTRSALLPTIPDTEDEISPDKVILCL
T2 sequence (Q16531 whole entry partner): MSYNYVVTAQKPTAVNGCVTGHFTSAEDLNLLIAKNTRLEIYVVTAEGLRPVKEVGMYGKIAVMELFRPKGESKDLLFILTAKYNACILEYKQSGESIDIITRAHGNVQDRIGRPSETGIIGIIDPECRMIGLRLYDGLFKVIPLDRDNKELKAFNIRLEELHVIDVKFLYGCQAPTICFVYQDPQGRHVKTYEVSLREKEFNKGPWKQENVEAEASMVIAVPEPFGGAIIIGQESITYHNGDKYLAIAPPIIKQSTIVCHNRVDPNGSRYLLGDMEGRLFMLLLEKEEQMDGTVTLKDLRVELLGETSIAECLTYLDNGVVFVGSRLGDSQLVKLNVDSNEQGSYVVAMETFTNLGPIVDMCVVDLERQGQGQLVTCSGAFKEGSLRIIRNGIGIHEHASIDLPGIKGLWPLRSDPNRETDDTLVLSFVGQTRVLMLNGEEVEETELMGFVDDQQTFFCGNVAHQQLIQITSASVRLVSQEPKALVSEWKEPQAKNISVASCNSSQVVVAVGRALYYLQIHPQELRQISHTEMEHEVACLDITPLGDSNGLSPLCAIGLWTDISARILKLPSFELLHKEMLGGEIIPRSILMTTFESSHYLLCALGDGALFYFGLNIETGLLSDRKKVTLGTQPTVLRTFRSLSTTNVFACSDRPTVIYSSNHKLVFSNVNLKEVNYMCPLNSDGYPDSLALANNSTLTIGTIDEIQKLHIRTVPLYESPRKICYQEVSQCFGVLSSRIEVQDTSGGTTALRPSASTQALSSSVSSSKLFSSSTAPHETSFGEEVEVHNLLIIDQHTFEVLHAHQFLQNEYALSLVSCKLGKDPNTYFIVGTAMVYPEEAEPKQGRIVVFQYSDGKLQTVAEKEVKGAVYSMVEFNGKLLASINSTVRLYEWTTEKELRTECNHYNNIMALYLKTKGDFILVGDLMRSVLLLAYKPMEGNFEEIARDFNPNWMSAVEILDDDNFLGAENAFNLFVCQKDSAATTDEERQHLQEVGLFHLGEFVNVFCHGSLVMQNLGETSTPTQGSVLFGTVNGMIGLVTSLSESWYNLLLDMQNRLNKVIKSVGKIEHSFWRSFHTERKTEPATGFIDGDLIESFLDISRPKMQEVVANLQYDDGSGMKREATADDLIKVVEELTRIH
How it was run: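 HEK293 CRISPR knock-in cells expressing LgBiT and GSPT1-HiBiT were seeded at 1000 cells/well and, after 18-24 h, treated with titrated compound plus endurazine (0.5× final) at 37 °C. Luminescence read after 6 h; loss of signal reflects GSPT1 degradation, giving DC50.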

[4] = 0 μM recombinant EGFR T790M L858R, read-out: DC50 at 0 μM EGFR T790M L858R
[5] = 0 μM recombinant EGFR WT, read-out: DC50 at 0 μM EGFR WT
[6] = 3 μM recombinant EGFR T790M L858R, read-out: DC50 at 3 μM EGFR T790M L858R
[7] = 3 μM recombinant EGFR WT, read-out: DC50 at 3 μM EGFR WT
[8] = 0 μM recombinant KRAS G12C, read-out: DC50 at 0 μM KRAS G12C
[9] = 5 μM recombinant KRAS G12C, read-out: DC50 at 5 μM KRAS G12C

| Structure (SMILES) | Kd [1] [nM] | DC50 [2, 4] [nM] | DC50 [2, 5] [nM] | DC50 [2, 6] [nM] | DC50 [2, 7] [nM] | DC50 [3] [nM] | DC50 [2, 8] [nM] | DC50 [2, 9] [nM] |
| --- | --- | --- | --- | --- | --- | --- | --- | --- |
| C=C(CN(C(=O)NCc1ccc2c(c1)CN(C1CCC(=O)NC1=O)C2=O)c1ccc(C)c(Cl)c1)C(=O)Nc1cc(Nc2ncc(-c3cn(C)c4ccccc34)cn2)c(OC)cc1N(C)CCN(C)C (stereo not drawn) [Compound I-42] | 500 to 2500 | 250 to 5000 | 5000 to 10000 | < 250 | < 250 | > 2500 | – | – |
| C=C(COc1cc(Cl)cc(NC(=O)NCc2ccc3c(c2)CN(C2CCC(=O)NC2=O)C3=O)c1)C(=O)N[C@@H]1CN(c2nc(Nc3cn(C)nc3OC)c3ncn(C)c3n2)C[C@H]1F (stereo partly drawn) [Compound I-45] | < 50 | < 250 | < 250 | < 250 | < 250 | 500 to 2500 | – | – |
| C=C(COc1ccc(Cl)cc1NC(=O)NCc1ccc2c(c1)CN(C1CCC(=O)NC1=O)C2=O)C(=O)N[C@@H]1CN(c2nc(Nc3cn(C)nc3OC)c3ncn(C)c3n2)C[C@H]1F (stereo partly drawn) [Compound I-47] | < 50 | < 250 | < 250 | < 250 | < 250 | 50 to 500 | – | – |
| C=C(COc1ccc(Cl)cc1NC(=O)NCc1ccc2c(c1)CN(C1CCC(=O)NC1=O)C2=O)C(=O)N1CC2(CC(n3nc(-c4ccc5c(cnn5C)c4)c(-c4c(Cl)c(C)cc5[nH]ncc45)c3C)C2)C1 (stereo not drawn) [Compound I-76] | – | – | – | – | – | 50 to 500 | < 250 | < 250 |
| C=C(COc1cc(NC(=O)NCc2ccc3c(c2)CN(C2CCC(=O)NC2=O)C3=O)cc(C(F)(F)F)c1)C(=O)N1CC2(CC(n3nc(-c4ccc5c(cnn5C)c4)c(-c4c(Cl)c(C)cc5[nH]ncc45)c3C)C2)C1 (stereo not drawn) [Compound I-77] | – | – | – | – | – | 50 to 500 | < 250 | < 250 |
| C=C(COC(=O)NCCc1ccc(Cl)cc1NC(=O)NCc1ccc2c(c1)CN(C1CCC(=O)NC1=O)C2=O)C(=O)N1CCN(c2nc(OC[C@@H]3CCCN3C)nc3c2CCN(c2cccc4cccc(Cl)c24)C3)C[C@@H]1CC#N (stereo partly drawn) [Compound I-78] | – | – | – | – | – | 500 to 2500 | > 10000 | > 10000 |
| C=C(COC(=O)NCCCc1ccc(Cl)cc1NC(=O)NCc1ccc2c(c1)CN(C1CCC(=O)NC1=O)C2=O)C(=O)N1CCN(c2nc(OC[C@@H]3CCCN3C)nc3c2CCN(c2cccc4cccc(Cl)c24)C3)C[C@@H]1CC#N (stereo partly drawn) [Compound I-79] | – | – | – | – | – | 500 to 2500 | 250 to 5000 | > 10000 |
| C=C(COc1ccccc1NC(=O)NCc1ccc2c(c1)CN(C1CCC(=O)NC1=O)C2=O)C(=O)N1CCN(c2nc(OC[C@H]3CCCN3C)nc3c2CCN(c2cccc4cccc(Cl)c24)C3)C[C@H]1CC#N (stereo partly drawn) [Compound I-80] | – | – | – | – | – | > 2500 | 250 to 5000 | < 250 |
| C=C(COc1cc(Cl)cc(NC(=O)NCc2ccc3c(c2)CN(C2CCC(=O)NC2=O)C3=O)c1F)C(=O)N1CCN(c2nc(OC[C@@H]3CCCN3C)nc3c2CCN(c2cccc4cccc(Cl)c24)C3)C[C@@H]1CC#N (stereo partly drawn) [Compound I-84] | – | – | – | – | – | 50 to 500 | < 250 | < 250 |
| C=C(COc1cc(NC(=O)NCc2ccc3c(c2F)CN(C2CCC(=O)NC2=O)C3=O)cc(C(F)(F)F)c1)C(=O)N1CCN(c2nc(OC[C@@H]3CCCN3C)nc3c2CCN(c2cccc4cccc(Cl)c24)C3)C[C@@H]1CC#N (stereo partly drawn) [Compound I-85] | – | – | – | – | – | 50 to 500 | 250 to 5000 | < 250 |
